Data on three compounds can be found in paper PMC5346991 (ACS Medicinal Chemistry Letters, 2017).

Data set [1] is described as follows: Human plasma protein binding. It is filed as in vitro ADME. The following applies: Table 1.
Data set [2] is described as follows: Mouse pharmacokinetics, plasma and brain exposure. Format: in vivo, female BALB/c mice. The following applies: 10 mg/kg i.p., for 4 h.
Data set [3] deals with HepG2 cells. The data set can be described thus: HepG2 toxicity assay. It is filed as cell-based. The following applies: host cell toxicity.

As to `O=S(=O)(c1ccc(-c2ccc3nccc(Nc4ccc(OCc5cccc(F)c5)cc4)c3c2)cc1)N1CCOCC1` [Compound 3], the “protein binding (% free)” value in data set [1] is given as less than 0.03 % free. As for `O=S(=O)(c1ccc(-c2ccc3nccc(Nc4ccncn4)c3c2)cc1)N1CCOCC1` [Compound 13j, 6-(4-(morpholinosulfonyl)phenyl)-N-(pyrimidin-4-yl)quinolin-4-amine], the “plasma exposure relative to the EC50” value in data set [2] is recorded as greater than 120 fold. On to `COc1ccc(Nc2ccnc3ccc(-c4ccc(S(=O)(=O)N5CCOCC5)cc4)cc23)cc1C` [Compound 13k], for which, in data set [3], the “HepG2 TC50” value worked out at 9.0 µM.
